{
  "source": "patent US4624950A",
  "about": "“Method for treating atherosclerosis hyperlipidema, lipid deposition on arterial walls, or raising the ratio of high density lipoprotein cholesterol to total cholesterol in serum” (Nissan Chemical Industries Ltd., priority 1983, dated 1986)",
  "key": {"[1]": {"system": "Salmonella (TA98, TA100, TA1535 and TA1538)", "experiment": "Mutagenicity test, Salmonella (Test 6)", "settings": "up to 5000 μg/Plate, absence or presence of S-9 mix of rat liver", "procedure": "The mutagenicity was tested by using Escherichia coli (WP2UVrA) and Salmonella (TA98, TA100, TA1535 and TA1538) in the absence or presence of a drug metabolizing enzymes S-9 mix of rat liver."}, "[2]": {"system": "Triton-induced hyperlipidemic rats", "experiment": "Antihyperlipidemic activity in Triton-induced hyperlipidemic rats, method B (43 hours) (Test 2)", "format": "in vivo, rat (male S.D.)", "procedure": "Cholesterol in serum was measured by means of a cholesterol measuring kit (Cholesterol C-Test Wako, manufactured by Wako Junyaku Co., Ltd.), and cholesterol in HDL was measured by means of NC Hi-Set, manufactured by Nippon Chemiphar Co., Ltd. The quantitative analysis of triglyceride was conducted by means of a triglyceride measuring kit (Triglyceride C-II-Test Wako, manufactured by Wako Junyaku Co., Ltd.). Further, the change rate in the following Tables, was calculated by the following equation. Change rate(%)=(A-B/A)×100 where A is the amount of serum lipids (mg/dl) of the control group, and B is the amount of serum lipids (mg/dl) of the group to which the therapeutic agent was administered. The antihyperlipidemic activity in Triton-induced hyperlipidemic rats Male S.D. rats weighing 230-250 g (7 weeks old) were divided into groups of 5 rats each and injected with a physiological saline solution of Triton Wr-1339 in a dose of 250 mg/kg (5 ml/kg) i.v. through the tail vein. […] The test compounds suspended in 0.5% CMC-Na were given to the rats in an amount of 2 ml/kg via stomach tube 1 hour before and 5 hours after (in the case of method A) or 1 hour before and 23 hours after (in the case of method B) the injection of Triton solution. Control rats received the same volume of the vehicle. The animals were fasted during the experimental period. The total cholesterol and triglyceride in the serum were measured."}, "cytochrome P-450": {"system": "cytochrome P-450", "experiment": "Effect on cytochrome P-450 / hepatic drug metabolizing systems of normal rats (Test 5)", "format": "in vivo, rat (male S.D.)", "settings": "300 mg/kg/day, seven days", "procedure": "(§1) The activities against serum lipid, the degree of hepatomegaly and the hepatic drug metabolizing systems of normal rats\n(§2) Male S.D. rats (6 weeks old) were divided into groups of 5 rats each. The test compounds suspended in 5% gum arabic were given to the rats once a day for seven days in a daily dose of 300 mg/kg. Then, the rats were fasted for one day, blood samples were taken, and the total cholesterol, triglyceride, HDL-cholesterol in the serum were quantitatively analyzed. Further, the liver weight was measured, and the degree of hepatomegaly was determined by comparing the weight ratio per 100 g of the body weight with that of the control group. Furthermore, GOT and GPT values were measured, and the activities of cytochrome P-450 and glutathione related enzymes were also measured. These values were compared with those of the control groups to investigate any abnormality."}, "[3]": {"system": "glutathione related enzymes", "experiment": "Effect on glutathione related enzymes of normal rats (Test 5)", "format": "in vivo, rat (male S.D.)", "settings": "300 mg/kg/day, seven days", "procedure": "as §1, §2"}},
  "data": [
    {"smiles": "CN1C(=S)SC(c2ccccc2)N(C)C1c1ccccc1", "note": "(stereo not drawn) [Compound of the formula I, 3,5-dimethyl-4,6-diphenyl-tetrahydro-2H-1,3,5-thiadiazine-2-thione]", "values": [
      {"measurement": "Mutagenicity", "setting": "[1]", "result": "did not show any mutagenicity"},
      {"measurement": "Change rate after 43 hours, Chol", "setting": "[2]; 150 mg/kg p.o.", "result": -43.5, "unit": "%"},
      {"measurement": "Change rate after 43 hours, TG", "setting": "[2]; 150 mg/kg p.o.", "result": -65.7, "unit": "%"},
      {"measurement": "Lipid reducing activity (in words)", "setting": "[2]; method B", "result": "distinc lipid reducing activity"},
      {"measurement": "Abnormalities in activity against cytochrome P-450 or other liver microsome drug metabolizing systems (in words)", "setting": "cytochrome P-450", "result": "no abnormalities were observed"},
      {"measurement": "Abnormalities in activity against glutathione related enzymes (in words)", "setting": "[3]", "result": "no abnormalities were observed"}
    ]}
  ]
}
